Source: patent US20250332139A1, “PS[…] AND THEIR USE FOR TREATING […] AND NE[…] DISORDERS” (Transcend Therapeutics, Inc., priority 2021, published 2025)
“And” between values parts separate entries of the source, which are not always exact repeats. Identical values can stand only once. Marks after values point to notes of the source that are not given here.

Key:
[1] = target: T1, serotonin transporter (SERT) (Rattus norvegicus, UniProt P31652); experiment: Competitive radioligand binding, [3H]citalopram, rat brain lysates
T1 construct: from tissue; synaptosomes for uptake and release
T1 sequence (P31652 whole entry): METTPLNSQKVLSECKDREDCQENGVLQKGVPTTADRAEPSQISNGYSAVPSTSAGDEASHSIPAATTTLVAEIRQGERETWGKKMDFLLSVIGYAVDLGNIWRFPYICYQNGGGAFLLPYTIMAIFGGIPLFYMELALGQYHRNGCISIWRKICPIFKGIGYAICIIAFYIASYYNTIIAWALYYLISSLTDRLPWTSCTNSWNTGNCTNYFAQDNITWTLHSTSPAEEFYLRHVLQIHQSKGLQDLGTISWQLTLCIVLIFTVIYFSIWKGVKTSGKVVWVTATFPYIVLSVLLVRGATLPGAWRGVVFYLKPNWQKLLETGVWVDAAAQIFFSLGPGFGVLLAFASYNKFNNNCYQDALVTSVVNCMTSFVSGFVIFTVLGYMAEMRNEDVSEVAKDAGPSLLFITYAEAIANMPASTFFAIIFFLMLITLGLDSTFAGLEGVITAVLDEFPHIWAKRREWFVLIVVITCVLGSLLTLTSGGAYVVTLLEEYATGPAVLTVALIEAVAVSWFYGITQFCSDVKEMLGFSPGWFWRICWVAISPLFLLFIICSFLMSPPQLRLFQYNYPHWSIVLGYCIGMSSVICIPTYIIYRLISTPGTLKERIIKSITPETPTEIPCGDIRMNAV
Protocol: Radioligands used were: [^3H] Citalopram (PerkinElmer NET1039250UC); [^3H] Nisoxetine (PerkinElmer NET1084250UC); [^3H] WIN35428 (PerkinElmer NET1033250UC). […] Rat brains were dissected and tissue was homogenized in cold lysis buffer, centrifged at 100×g for 2 min and the supernatant was placed in a fresh tube. Supernatant was centrifuged at 13,000×g for 10 min at 4° C. to re-pellet the cell lysate. The pellet was resuspended in fresh wash buffer (50 mM Tris-HCl; 5 mM MgCl2; 5 mM EDTA) and centrifuged a third time. The pellet was then resuspended in wash buffer containing 10% sucrose as a cryoprotectant, divided into aliquots (0.3 mL) and stored at −80° C. A sample of the homogenate was analyzed for protein content using the SIGMA® BCA assay. On the day of the assay, the membrane preparation was thawed, and the pellet resuspended in final assay buffer. […] To each well was added 150 μL membranes, 50 μL of non-specific compound or buffer and 50 μL radioligand solution in buffer. […] Ki was subsequently calculated using the Cheng-Prusoff equation.

168 GPCRs [2] = target: 168 GPCRs (Homo sapiens, UniProt Q969F8); experiment: β-arrestin GPCR screen (PathHunter/GPCRmax), antagonist mode; details: KISS1R; Antagonist; 1 uM
168 GPCRs [3] = target: 168 GPCRs (Homo sapiens, UniProt P41586); experiment: as above; details: ADCYAP1R1; Antagonist; 1 uM
Sequence of 168 GPCRs (Homo sapiens, UniProt P41586) (P41586 21-468): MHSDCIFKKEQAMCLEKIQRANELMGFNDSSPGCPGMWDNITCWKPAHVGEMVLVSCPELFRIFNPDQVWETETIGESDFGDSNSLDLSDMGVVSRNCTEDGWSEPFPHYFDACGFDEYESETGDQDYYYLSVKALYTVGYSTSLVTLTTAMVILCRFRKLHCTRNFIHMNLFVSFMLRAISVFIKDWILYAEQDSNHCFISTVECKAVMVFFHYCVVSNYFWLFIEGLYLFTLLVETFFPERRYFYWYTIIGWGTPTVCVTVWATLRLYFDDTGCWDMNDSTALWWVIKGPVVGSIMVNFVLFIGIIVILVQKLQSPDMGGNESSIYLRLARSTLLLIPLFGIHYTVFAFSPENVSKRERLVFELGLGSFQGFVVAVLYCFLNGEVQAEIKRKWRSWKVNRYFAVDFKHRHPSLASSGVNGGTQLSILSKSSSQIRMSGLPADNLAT

168 GPCRs [4] = target: 168 GPCRs (Homo sapiens, UniProt P55085); experiment: as above; details: GPCR F2RL1; Antagonist mode; 10 uM
Sequence of 168 GPCRs (Homo sapiens, UniProt P55085) (P55085 26-397): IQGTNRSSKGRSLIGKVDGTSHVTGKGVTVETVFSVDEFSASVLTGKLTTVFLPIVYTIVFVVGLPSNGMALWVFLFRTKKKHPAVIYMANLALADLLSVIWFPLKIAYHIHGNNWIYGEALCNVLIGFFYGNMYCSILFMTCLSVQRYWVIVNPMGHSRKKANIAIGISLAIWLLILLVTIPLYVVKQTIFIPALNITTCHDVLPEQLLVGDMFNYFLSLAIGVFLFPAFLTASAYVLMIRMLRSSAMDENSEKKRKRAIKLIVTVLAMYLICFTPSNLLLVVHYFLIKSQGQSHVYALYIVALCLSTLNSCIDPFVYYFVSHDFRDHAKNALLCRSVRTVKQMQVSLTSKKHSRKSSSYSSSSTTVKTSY

168 GPCRs [5] = target: 168 GPCRs (Homo sapiens, UniProt Q8TCW9); experiment: as above; details: PROKR1; Antagonist; 1 uM
Sequence of 168 GPCRs (Homo sapiens, UniProt Q8TCW9) (Q8TCW9 whole entry): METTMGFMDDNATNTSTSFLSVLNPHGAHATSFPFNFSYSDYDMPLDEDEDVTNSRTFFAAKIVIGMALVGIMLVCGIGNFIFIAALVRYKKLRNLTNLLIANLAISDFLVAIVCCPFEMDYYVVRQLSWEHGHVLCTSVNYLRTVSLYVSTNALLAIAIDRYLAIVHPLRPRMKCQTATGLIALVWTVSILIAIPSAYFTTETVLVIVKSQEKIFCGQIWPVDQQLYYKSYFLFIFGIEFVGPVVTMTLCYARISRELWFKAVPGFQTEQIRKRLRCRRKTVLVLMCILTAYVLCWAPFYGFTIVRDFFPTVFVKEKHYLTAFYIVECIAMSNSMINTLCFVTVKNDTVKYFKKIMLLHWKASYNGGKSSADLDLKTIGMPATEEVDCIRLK

168 GPCRs [6] = target: 168 GPCRs (Homo sapiens, UniProt P48039); experiment: as above; details: GPCR MTNR1A; Antagonist mode; 10 uM
168 GPCRs [7] = target: 168 GPCRs (Homo sapiens, UniProt P47211); experiment: as above; details: GPCR GALR1; Antagonist mode; 10 uM
Sequence of 168 GPCRs (Homo sapiens, UniProt P47211) (P47211 whole entry): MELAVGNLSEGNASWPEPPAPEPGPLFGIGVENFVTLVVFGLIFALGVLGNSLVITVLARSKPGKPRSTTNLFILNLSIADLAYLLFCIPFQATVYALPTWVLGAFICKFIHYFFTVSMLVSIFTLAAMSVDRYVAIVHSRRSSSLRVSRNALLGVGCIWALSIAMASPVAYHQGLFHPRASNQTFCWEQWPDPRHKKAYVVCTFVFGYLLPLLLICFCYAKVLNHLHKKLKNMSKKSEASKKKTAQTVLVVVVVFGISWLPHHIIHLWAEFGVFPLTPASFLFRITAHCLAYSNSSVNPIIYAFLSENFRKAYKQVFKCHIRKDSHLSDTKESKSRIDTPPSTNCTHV

168 GPCRs [8] = target: 168 GPCRs (Homo sapiens, UniProt P21462); experiment: as above; details: FPR1; Antagonist; 1 uM
168 GPCRs [9] = target: 168 GPCRs (Homo sapiens, UniProt P08172); experiment: as above; details: CHRM2; Antagonist; 1 uM
Sequence of 168 GPCRs (Homo sapiens, UniProt P08172) (P08172 whole entry): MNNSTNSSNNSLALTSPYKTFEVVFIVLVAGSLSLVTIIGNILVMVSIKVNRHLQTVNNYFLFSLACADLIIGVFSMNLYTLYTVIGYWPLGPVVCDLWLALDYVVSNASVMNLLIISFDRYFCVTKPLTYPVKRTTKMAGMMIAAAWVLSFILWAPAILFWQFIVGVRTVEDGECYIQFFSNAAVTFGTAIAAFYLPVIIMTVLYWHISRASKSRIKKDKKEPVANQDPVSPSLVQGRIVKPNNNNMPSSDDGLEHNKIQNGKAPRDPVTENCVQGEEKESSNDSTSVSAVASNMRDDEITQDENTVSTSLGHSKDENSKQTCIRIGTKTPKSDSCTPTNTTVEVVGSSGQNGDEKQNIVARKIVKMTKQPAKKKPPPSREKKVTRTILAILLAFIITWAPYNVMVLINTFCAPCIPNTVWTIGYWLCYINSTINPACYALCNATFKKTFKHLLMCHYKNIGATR

168 GPCRs [10] = target: 168 GPCRs (Homo sapiens, UniProt P41587); experiment: as above; details: GPCR VIPR2; Antagonist mode; 10 uM
Sequence of 168 GPCRs (Homo sapiens, UniProt P41587) (P41587 24-438): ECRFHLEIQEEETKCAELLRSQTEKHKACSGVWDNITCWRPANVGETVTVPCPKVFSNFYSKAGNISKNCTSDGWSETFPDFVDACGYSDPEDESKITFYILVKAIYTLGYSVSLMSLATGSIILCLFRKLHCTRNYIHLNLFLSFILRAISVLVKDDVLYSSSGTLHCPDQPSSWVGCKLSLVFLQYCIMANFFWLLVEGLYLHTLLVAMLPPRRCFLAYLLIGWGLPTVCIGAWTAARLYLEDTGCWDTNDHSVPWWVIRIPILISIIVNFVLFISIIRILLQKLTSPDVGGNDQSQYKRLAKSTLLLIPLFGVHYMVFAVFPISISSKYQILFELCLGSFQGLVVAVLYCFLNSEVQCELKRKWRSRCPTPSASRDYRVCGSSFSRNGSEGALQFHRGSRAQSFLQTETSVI

168 GPCRs [11] = target: 168 GPCRs (Homo sapiens, UniProt O95838); experiment: as above; details: GLP2R; Antagonist; 1 uM
Sequence of 168 GPCRs (Homo sapiens, UniProt O95838) (O95838 whole entry): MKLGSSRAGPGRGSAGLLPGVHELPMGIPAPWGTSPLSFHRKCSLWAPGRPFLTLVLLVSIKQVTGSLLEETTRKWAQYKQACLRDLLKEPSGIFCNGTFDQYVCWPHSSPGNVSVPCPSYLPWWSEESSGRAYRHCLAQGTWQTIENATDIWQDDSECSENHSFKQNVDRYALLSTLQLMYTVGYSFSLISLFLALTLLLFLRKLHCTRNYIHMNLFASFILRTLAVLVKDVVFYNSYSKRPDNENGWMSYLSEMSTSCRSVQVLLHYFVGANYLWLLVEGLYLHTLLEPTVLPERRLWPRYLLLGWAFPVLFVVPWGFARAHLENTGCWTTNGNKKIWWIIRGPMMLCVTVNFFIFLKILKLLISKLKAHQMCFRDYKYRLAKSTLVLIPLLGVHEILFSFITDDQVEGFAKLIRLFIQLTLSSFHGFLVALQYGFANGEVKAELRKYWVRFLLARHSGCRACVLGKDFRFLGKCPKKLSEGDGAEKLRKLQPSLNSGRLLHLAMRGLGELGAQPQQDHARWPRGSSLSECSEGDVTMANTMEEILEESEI

168 GPCRs [12] = target: 168 GPCRs (Homo sapiens, UniProt P35367); experiment: as above; details: GPCR HRH1; Antagonist mode; 10 uM
Sequence of 168 GPCRs (Homo sapiens, UniProt P35367) (P35367 whole entry): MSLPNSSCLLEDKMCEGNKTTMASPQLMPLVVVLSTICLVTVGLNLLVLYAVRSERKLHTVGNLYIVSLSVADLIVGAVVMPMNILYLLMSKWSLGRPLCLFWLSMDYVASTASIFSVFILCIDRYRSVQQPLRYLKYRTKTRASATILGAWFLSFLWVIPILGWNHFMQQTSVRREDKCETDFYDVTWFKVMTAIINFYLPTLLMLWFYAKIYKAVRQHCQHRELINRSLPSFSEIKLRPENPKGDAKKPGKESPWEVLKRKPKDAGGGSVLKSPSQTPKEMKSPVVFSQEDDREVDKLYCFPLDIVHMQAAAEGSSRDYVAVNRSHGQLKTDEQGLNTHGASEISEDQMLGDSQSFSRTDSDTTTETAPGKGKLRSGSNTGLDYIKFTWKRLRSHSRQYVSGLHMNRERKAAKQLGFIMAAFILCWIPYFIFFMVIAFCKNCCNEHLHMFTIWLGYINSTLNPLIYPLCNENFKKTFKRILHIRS

[13] = Excipient compatibility study; format: physicochemical; details: 2 Week 40° C./75% RH, closed vial
Protocol: Analyses were conducted at t=0, 2, 4 and 8 weeks for appearance, assay, and related substances for samples stored in closed vials at 25° C./60% RH and 40° C./75% RH.
Excipient Compatibility Sample Mixtures: The excipients and API were dispensed individually by weight into 20 mL clear borosilicate (type I) glass vials to fill the appropriate weights as listed in Table 12. Table 12 lists mixtures of API with varied excipients and a stand-alone control sample of API alone. Each excipient mixture sample preparation was conducted using a clean spatula to mix the vial ingredients for 30-60 seconds. Each vial was properly labeled with the description and storage conditions. One vial was used for testing at the initial (t=0) time point. Three vials, closed, were placed at each storage condition to allow sampling at each time point and one vial, closed, was placed at each storage condition for overage.

SERT = SERT (Rattus norvegicus, UniProt P31652); experiment: [3H]5HT uptake saturation curves with or without methylone; format: biochemical
Sequence of SERT (P31652 whole entry): as the sequence (P31652 whole entry) above
Excerpt: If high concentrations of [^3H] […] Three hot saturation curves were run with the [^3H]

[14] = system: patients with PTSD or MDD; healthy subjects; experiment: Methylone case series (outpatient, CGI-S/CGI-I); format: in vivo, human
Protocol: CGI-S scale was also evaluated in a subset of patients from Cohort 2 post-treatment. Cohort 2 was evaluated for any observed or reported safety events following a single dosing session.
Clinical Global Impressions (CGI) scale includes 2 components: CGI-S(“severity”) and CGI-I (“improvement”).
No protected health information was disclosed, and no consent was obtained from patients for use of their archival data. Case narratives were systematically compiled from data collected as part of routine clinical work. Diagnoses were confirmed by an experienced clinician using semi-structured interviews. Baseline symptom severity was evaluated using the Clinical Global Impressions Scale-Severity (CGI-S). Symptom improvement was evaluated using the Clinical Global Impressions Scale-Improvement (CGI-I) following dosing. […] Because these case narratives were examined retrospectively from routine clinical care records, and not gathered prospectively in a research study, more specific validated rating scales for assessing PTSD symptoms were not available. Additionally, follow-up varied, with the length of follow-up ranging from one week (Case 2) to 15 years (Case 16).

CNC(C)C(=O)c1ccc2c(c1)OCO2 (stereo not shown) [methylone, 3,4-methylenedioxy-N-methylcathinone]
Ki [1]: 4.15 µM | activity at 1 µM (168 GPCRs [2]): 25.7% | activity at 1 µM (168 GPCRs [3]): ~13% | activity at 10 µM (168 GPCRs [4]): -16.2% | activity at 1 µM (168 GPCRs [5]): 6.7% | activity at 10 µM (168 GPCRs [6]): ~7% | activity at 10 µM (168 GPCRs [7]): 8.8% | activity at 1 µM (168 GPCRs [8]): ~-4% | activity at 1 µM (168 GPCRs [9]): -18.9% | activity at 10 µM (168 GPCRs [10]): ~-2% | activity at 1 µM (168 GPCRs [11]): 6.4% | activity at 10 µM (168 GPCRs [12]): -2.2% | Assay (% Recovery) [13]: 99.0 % Recovery | effect on Bmax of [3H]5HT uptake (SERT): no decrease in Bmax | type of interaction at the SERT (SERT; two concentrations of methylone): competitive | adverse effects ([14]; Cohort 1, 4 healthy subjects, total dose 790-870 mg in one session): no adverse effects or after-effects were observed or reported | patients with initial improvement at first methylone session ([14]; Cohort 2 (25 of 28 patients)): ~90% | Number of cases with highest observed CGI-I 1 ([14]; Cohort 2, N = 28): 11* | Number of cases with highest observed CGI-I 2 ([14]; Cohort 2, N = 28): 13 | Number of cases with highest observed CGI-I 3 ([14]; Cohort 2, N = 28): 4 | Number of cases with highest observed CGI-I 4 ([14]; Cohort 2, N = 28): 0 | Number of cases with highest observed CGI-I 5 ([14]; Cohort 2, N = 28): 0 | Number of cases with highest observed CGI-I 6 ([14]; Cohort 2, N = 28): 0 | Number of cases with highest observed CGI-I 7 ([14]; Cohort 2, N = 28): 0 | number of patients achieving a CGI-I of 1 or 2 ([14]; Example 5, 21 PTSD patients): 17 patients | tolerability ([14]; Example 5, 21 PTSD patients, oral 100 to 1,020 mg): generally well tolerated | Best CGI-S post-treatment ([14]; individual cases, Cohort 2): 1 and 4 and 2 and 3 | CGI-S max change from BL ([14]; individual cases, Cohort 2): −3 (4×) and −4
